Reference: patent US4199512A, “Compounds for alleviating hypertension” (E. R. Squibb & Sons, Inc., priority 1978, dated 1980)
Each block holds one compound with its values, some of them ahead of it.

Tests used:
[1] = molecular target: T1, angiotensin converting enzyme (Oryctolagus cuniculus, UniProt P12822); experiment: Inhibition of isolated angiotensin-converting enzyme of rabbit lung (cleavage of hippuryl-L-histidyl-L-leucine); assay type: biochemical; parameters: isolated angiotensin converting enzyme from rabbit lungs; from tissue; host or cells: rabbit lung; details: 5 mM hippuryl-L-histidyl-L-leucine; pH 8.3; 30 minutes at 37° C.; read-out: I50 (50% inhibition of angiotensin-converting enzyme) (converted)
T1 sequence (P12822 34-1310): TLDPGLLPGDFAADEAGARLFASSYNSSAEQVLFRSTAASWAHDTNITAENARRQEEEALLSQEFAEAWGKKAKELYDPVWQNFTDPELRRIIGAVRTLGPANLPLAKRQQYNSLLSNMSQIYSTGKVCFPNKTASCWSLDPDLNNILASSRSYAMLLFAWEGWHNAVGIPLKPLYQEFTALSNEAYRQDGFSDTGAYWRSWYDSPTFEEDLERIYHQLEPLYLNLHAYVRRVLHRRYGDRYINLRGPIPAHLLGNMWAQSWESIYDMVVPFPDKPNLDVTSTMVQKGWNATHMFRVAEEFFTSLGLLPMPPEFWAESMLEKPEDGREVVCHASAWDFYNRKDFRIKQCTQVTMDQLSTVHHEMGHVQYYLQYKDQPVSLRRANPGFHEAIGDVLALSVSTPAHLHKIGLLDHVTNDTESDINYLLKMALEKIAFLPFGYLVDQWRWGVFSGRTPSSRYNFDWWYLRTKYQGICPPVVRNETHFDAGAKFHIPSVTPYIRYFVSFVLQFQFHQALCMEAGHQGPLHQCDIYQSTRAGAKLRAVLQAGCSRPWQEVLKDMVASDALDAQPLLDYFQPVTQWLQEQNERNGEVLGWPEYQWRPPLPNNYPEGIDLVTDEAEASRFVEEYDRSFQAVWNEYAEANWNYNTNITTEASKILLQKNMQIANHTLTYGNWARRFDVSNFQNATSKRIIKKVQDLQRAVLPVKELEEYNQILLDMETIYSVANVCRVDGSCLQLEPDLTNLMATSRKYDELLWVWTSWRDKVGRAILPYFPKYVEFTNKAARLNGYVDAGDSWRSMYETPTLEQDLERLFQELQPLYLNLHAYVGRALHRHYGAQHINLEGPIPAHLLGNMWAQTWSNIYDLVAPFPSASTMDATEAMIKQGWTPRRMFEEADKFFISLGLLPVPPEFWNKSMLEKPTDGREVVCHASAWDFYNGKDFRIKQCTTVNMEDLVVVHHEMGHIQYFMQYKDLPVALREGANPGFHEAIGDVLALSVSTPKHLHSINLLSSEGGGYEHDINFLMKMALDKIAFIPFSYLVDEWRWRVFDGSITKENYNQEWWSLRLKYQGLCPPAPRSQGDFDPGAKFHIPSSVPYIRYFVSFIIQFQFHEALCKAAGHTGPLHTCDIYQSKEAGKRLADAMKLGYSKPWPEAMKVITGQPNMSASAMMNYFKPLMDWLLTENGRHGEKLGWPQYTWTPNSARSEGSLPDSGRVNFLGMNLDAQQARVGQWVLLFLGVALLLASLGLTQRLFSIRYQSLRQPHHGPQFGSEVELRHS
From the text: Although conversion of angiotensin I to angiotensin II by angiotensin-converting enzyme is probably the reaction of most importance in the pathology of hypertension, the activity of the isolated enzyme is more conveniently and accurately assayed by measuring its rate of cleavage of a simpler peptide substrate, hippuryl-L-histidyl-L-leucine. For determination of I50 values (concentrations of compounds expressed in micrograms/ml producing a 50% inhibition of angiotensin-converting enzyme) various concentrations of each compound are added to 13×100 mm tubes along with the following components at the indicated final concentrations in a final volume of 0.25 ml: 100 mM potassium phosphate buffer, pH 8.3; 300 mM sodium chloride; 5 mM hippuryl-L-histidyl-L-leucine; and 5 milliunits of angiotensin-converting enzyme of rabbit lung. Controls containing no inhibitor (100% activity), and those acidified before addition of the enzyme (0% activity) are similarly prepared. All of the enzymatic reactions are initiated by addition of the enzyme component; tubes are incubated for 30 minutes at 37° C.; and reactions are terminated by addition of 0.25 ml. of 1 N HCl. The hippuric acid formed by action of angiotensin-converting enzyme on hippuryl-L-histidyl-L-leucine is extracted into ethyl acetate, evaporated to dryness, redissolved in water and quantitated from its absorbance at 228 nm. The percent inhibition by each concentration of compound is calculated by comparison with the 0% and 100% activity controls. The concentrations of representative compounds of the present invention which inhibit activity of angiotensin-converting enzyme by 50% are shown in the following table: […]

[2] = test system: anesthetized normotensive rats; details: intravenous; cited from earlier work
[3] = in vivo; cited from earlier work
[4] = test system: angiotensin I pressor response; experiment: Inhibition of angiotensin I pressor response in unanesthetized rats, oral; assay type: in vivo, rat (male, Sprague-Dawley); details: angiotensin I 0.31 μg/kg, 2 animals
Method: Representative compounds of the present invention are administered orally to unanesthetized male rats of the Sprague-Dawley strain, weighing about 200 g., followed by an injection of 0.31 μg/kg of angiotensin I. The following table indicates the degree of inhibition obtained.

[5] = test system: angiotensin I converting enzyme in excised guinea pig ileum; experiment: Inhibition of angiotensin I converting enzyme in excised guinea pig ileum (contractile activity of angiotensin I); details: Krebs solution at 37°; angiotensin I 25 ng/ml
Method: The procedure for evaluating the inhibition of angiotensin I converting enzyme in excised guinea pig ileum is carried out as follows: varying concentrations of the compound are added to an excised guinea pig ileum bath in Krebs solution at 37°, aerated with a mixture of 95% O2 -5% CO2. After two minutes, angiotensin I (25 ng/ml) is added and the isotonic […] are measured. The concentration of representative compounds of the present invention (in micrograms/ml) which inhibit the contractile activity of angiotensin I by 50% (IC50) are shown in the following table: […]

normotensive rat = experiment: Blood pressure in normotensive rat, oral; assay type: in vivo; details: same dose (300 mg) orally
[6] = test system: angiotensinogen and renin blood levels; details: normotensive rats; cited from earlier work
[7] = test system: 2-kidney Goldblatt renal hypertensive rat; experiment: Mean blood pressure in 2-kidney Goldblatt renal hypertensive rat, oral; assay type: in vivo, rat (male, CF Nelson); details: second dosage day, 300 mg oral
From the text: Male rats of the CF Nelson strain are anesthetized with ether and each left renal artery is partially constricted with a silver clip (i.d. 0.22 mm). The right kidney and renal artery are left intact.

IC50 [1]: 15.9 µM
IC50 (inhibit the contractile activity of angiotensin I by 50%) [5]: 2.0 µg/mL
Compound: CC(S)C(=O)NCC(=O)O (stereo not shown) [Example 51, N-2-Mercaptopropanoylglycine]
lowering of the blood pressure [2]: produced lowering of the blood pressure
effects of blood pressure [3]: no noticeable effects of blood pressure
% maximum inhibition of angiotensin I pressor response ± SE ([4]; 10 mg/kg oral): 29.9 ± 3.1%
% maximum inhibition of angiotensin I pressor response ± SE ([4]; 30 mg/kg oral): 52.9 ± 15.8%
% maximum inhibition of angiotensin I pressor response ± SE ([4]; 100 mg/kg oral): 64.9 ± 12.3%
effects on blood pressure (normotensive rat): no significant effects on blood pressure
angiotensinogen [6]: increases angiotensinogen
renin blood levels [6]: lowers renin blood levels
Mean blood pressure ([7]; Rat #9, 1 h after drug, before drug 222): 206 mm Hg
Mean blood pressure ([7]; Rat #9, 2 h after drug, before drug 222): 173 mm Hg
Mean blood pressure ([7]; Rat #9, 3 h after drug, before drug 222): 157 mm Hg
Mean blood pressure ([7]; Rat #9, 4 h after drug, before drug 222): 184 mm Hg
Mean blood pressure ([7]; Rat #9, 5 h after drug, before drug 222): 206 mm Hg
Mean blood pressure ([7]; Rat #9, 6 h after drug, before drug 222): 199 mm Hg
Mean blood pressure ([7]; Rat #10, 1 h after drug, before drug 206): 203 mm Hg
Mean blood pressure ([7]; Rat #10, 2 h after drug, before drug 206): 190 mm Hg
Mean blood pressure ([7]; Rat #10, 3 h after drug, before drug 206): 189 mm Hg
Mean blood pressure ([7]; Rat #10, 4 h after drug, before drug 206): 199 mm Hg
Mean blood pressure ([7]; Rat #10, 5 h after drug, before drug 206): 195 mm Hg
Mean blood pressure ([7]; Rat #10, 6 h after drug, before drug 206): 197 mm Hg

IC50 [1]: 3.39 µM
IC50 (inhibit the contractile activity of angiotensin I by 50%) [5]: 0.52 µg/mL
Compound: O=C(CCS)N[C@@H](Cc1ccccc1)C(=O)O [Example 6, N-(3-Mercaptopropanoyl)-L-phenylalanine]

IC50 [1]: 6.77 µM
IC50 (inhibit the contractile activity of angiotensin I by 50%) [5]: 0.94 µg/mL
Compound: C[C@H](NC(=O)CCS)C(=O)O [Example 2, N-(3-mercaptopropanoyl)-L-alanine]

IC50 [1]: 10.2 µM
IC50 (inhibit the contractile activity of angiotensin I by 50%) [5]: 0.94 µg/mL
Compound: CN(CC(=O)O)C(=O)CCS [Example 10, N-(3-Mercaptopropanoyl)sarcosine]

IC50 [1]: 8.21 µM
IC50 (inhibit the contractile activity of angiotensin I by 50%) [5]: 2.0 µg/mL
Compound: CC(C)C[C@H](NC(=O)CCS)C(=O)O [Example 4, N-(3-Mercaptopropanoyl)-L-leucine]

IC50 [1]: 0.648 µM
IC50 (inhibit the contractile activity of angiotensin I by 50%) [5]: 0.9 µg/mL
Compound: N=C(N)NCCC[C@H](NC(=O)CCS)C(=O)O [Example 8, N^α -(3-Mercaptopropanoyl)-L-arginine]

IC50 (inhibit the contractile activity of angiotensin I by 50%) [5]: 4.1 µg/mL
Compound: N=C(N)NCCC[C@H](NC(=O)C(CS)Cc1ccccc1)C(=O)O (stereo partly drawn) [Example 34, N^α -(3-mercapto-2-benzylpropanoyl)-L-arginine]

IC50 [1]: 12.3 µM
IC50 (inhibit the contractile activity of angiotensin I by 50%) [5]: 4.5 µg/mL
Compound: O=C(O)CNC(=O)CCS [Example 15, N-(3-Mercaptopropanoyl)glycine]
% maximum inhibition of angiotensin I pressor response ± SE ([4]; 10 mg/kg oral): 34.2 ± 6.7%
% maximum inhibition of angiotensin I pressor response ± SE ([4]; 100 mg/kg oral): 61.5 ± 1.2%
